Laboratory results as given in ChEMBL document CHEMBL6127066, “Pegylation enhances the anti-osteoporosis activity of acacetin in both ovariectomized and LPS-stimulated mice” (Bioorg Med Chem, 2024).
The source made the active and inactive calls. No cut-off for these calls is given here.

Key:
[1] = system: Mus musculus; assay: Anti-osteoporosis activity in OVX-induced […] C57BL/6J mouse model assessed as improvement in trabecular bone volume fraction in femur at 5 mg/kg measured every three days for 7 weeks by Micro-CT 3D scanning analysis; format: functional, organism-based
[2] = system: Mus musculus; assay: Anti-osteoporosis activity in OVX-induced […] C57BL/6J mouse model assessed as improvement in trabecular number in femur at 5 mg/kg measured every three days for 7 weeks by Micro-CT 3D scanning analysis; format: functional, organism-based
[3] = species on record: Mus musculus; assay: Anti-osteoporosis activity OVX-induced […] C57BL/6J mouse model assessed as reduction of trabecular bone in femur by H and E staining based analysis; format: functional, organism-based
[4] = system: Mus musculus; assay: Anti-osteoporosis activity LPS induced male C57BL/6J mouse model assessed as increase in trabecular number in femur at 5 mg/kg measured every 2 days for 12 day by Micro-CT 3D scanning method; format: functional, organism-based
[5] = system: BMDM; assay: Anti-osteoclastogenesis activity in RANKL-induced mouse BMDM cells assessed as downregulation of Fos mRNA expression at 10 uM measured after 4 days by RT-PCR analysis; format: functional, cell-based; conditions: time 4.0 day
[6] = species on record: Mus musculus; assay: Anti-osteoporosis activity OVX-induced […] C57BL/6J mouse model assessed as attenuation of number of osteoclast by TRAP staining based analysis; format: functional, organism-based
[7] = Cytotoxicity against mouse BMDM cells at <20 uM measured after 48 to 96 hrs by CCK-8 method; format: toxicity, cell-based; conditions: time 48-96 hrs
[8] = system: Mus musculus; assay: Anti-osteoporosis activity LPS induced male C57BL/6J mouse model assessed as increase in BMD in femur at 5 mg/kg measured every 2 days for 12 day by Micro-CT 3D scanning method; format: functional, organism-based
[9] = system: Mus musculus; assay: Anti-osteoporosis activity LPS induced male C57BL/6J mouse model assessed as increase in trabecular bone volume fraction in femur at 5 mg/kg measured every 2 days for 12 day by Micro-CT 3D scanning method; format: functional, organism-based
[10] = system: Mus musculus; assay: Anti-osteoporosis activity in OVX-induced […] C57BL/6J mouse model assessed as improvement in trabecular thickness in femur at 5 mg/kg measured every three days for 7 weeks by Micro-CT 3D scanning analysis; format: functional, organism-based
[11] = system: Mus musculus; assay: Anti-osteoporosis activity LPS induced male C57BL/6J mouse model assessed as increase in trabecular thickness in femur at 5 mg/kg measured every 2 days for 12 day by Micro-CT 3D scanning method; format: functional, organism-based
[12] = system: BMDM; assay: Anti-osteoclastogenesis activity in RANKL-induced mouse BMDM cells assessed as reduction in number of TRAP-positive cells at 10 uM measured after 4 days by TRAP staining based analysis; format: functional, cell-based; conditions: time 4.0 day
[13] = system: BMDM; assay: Anti-osteoclastogenesis activity in RANKL-induced mouse BMDM cells assessed as downregulation of TRAP mRNA expression at 10 uM measured after 4 days by RT-PCR analysis; format: functional, cell-based; conditions: time 4.0 day
[14] = species on record: Mus musculus; assay: Anti-osteoporosis activity LPS induced male C57BL/6J mouse model assessed as attenuation of number of osteoclast per unit of trabecular bone area by TRAP staining based analysis; format: functional, organism-based
[15] = Drug uptake in male C57BL/6J mouse serum assessed as increase in acacetin level at 50 mg/kg, ip measured after 10 mins; format: ADME, organism-based; conditions: in vivo
[16] = system: BMDM; assay: Anti-osteoclastogenesis activity in RANKL-induced mouse BMDM cells assessed as downregulation of Ctsk-mRNA expression at 10 uM measured after 4 days by RT-PCR analysis; format: functional, cell-based; conditions: time 4.0 day
[17] = species on record: Mus musculus; assay: Anti-osteoporosis activity LPS induced male C57BL/6J mouse model assessed as increase in density of cancellous bone trabeculae in femur by H and E staining based analysis; format: functional, organism-based
[18] = system: BMDM; assay: Anti-osteoclastogenesis activity in RANKL-induced mouse BMDM cells assessed as reduction in TRAP-positive area at 10 uM measured after 4 days by TRAP staining based analysis; format: functional, cell-based; conditions: time 4.0 day
[19] = system: BMDM; assay: Anti-osteoclastogenesis activity in RANKL-induced mouse BMDM cells assessed as downregulation of Acp mRNA expression at 10 uM measured after 4 days by RT-PCR analysis; format: functional, cell-based; conditions: time 4.0 day
[20] = system: Mus musculus; assay: Anti-osteoporosis activity in OVX-induced […] C57BL/6J mouse model assessed as improvement in BMD in femur at 5 mg/kg measured every three days for 7 weeks by Micro-CT 3D scanning analysis; format: functional, organism-based
[21] = species on record: Mus musculus; assay: Anti-osteoporosis activity OVX-induced […] C57BL/6J mouse model assessed as reduction of CTX-I level by ELISA method; format: functional, organism-based
[22] = species on record: Mus musculus; assay: Anti-osteoporosis activity LPS induced male C57BL/6J mouse model assessed as reduction of CTX-I level by ELISA method; format: functional, organism-based
[23] = system: Mus musculus; assay: Anti-osteoporosis activity in OVX-induced […] C57BL/6J mouse model assessed as improvement in trabecular number in femur at 9.36 mg/kg measured every three days for 7 weeks by Micro-CT 3D scanning analysis; format: functional, organism-based
[24] = system: RAW264.7; assay: Antiinflammatory activity in LPS-induced mouse RAW264.7 cells assessed as inhibition of Il6 mRNA expression at 10 uM preincubated for 3 hrs followed by LPS stimulation and measured after 6 hrs by RT-PCR analysis; format: functional, cell-based; conditions: time 9.0 hrs
[25] = Drug uptake in male C57BL/6J mouse serum assessed as increase in acacetin level at 93.6 mg/kg, ip measured after 10 mins; format: ADME, organism-based; conditions: in vivo
[26] = system: RAW264.7; assay: Antiinflammatory activity in LPS-induced mouse RAW264.7 cells assessed as inhibition of Tnf mRNA expression at 10 uM preincubated for 3 hrs followed by LPS stimulation and measured after 6 hrs by RT-PCR analysis; format: functional, cell-based; conditions: time 9.0 hrs
[27] = system: Mus musculus; assay: Anti-osteoporosis activity LPS induced male C57BL/6J mouse model assessed as increase in trabecular number in femur at 9.36 mg/kg measured every 2 days for 12 day by Micro-CT 3D scanning method; format: functional, organism-based
[28] = system: Mus musculus; assay: Anti-osteoporosis activity in OVX-induced […] C57BL/6J mouse model assessed as improvement in trabecular thickness in femur at 9.36 mg/kg measured every three days for 7 weeks by Micro-CT 3D scanning analysis; format: functional, organism-based
[29] = system: Mus musculus; assay: Anti-osteoporosis activity in OVX-induced […] C57BL/6J mouse model assessed as improvement in trabecular bone volume fraction in femur at 9.36 mg/kg measured every three days for 7 weeks by Micro-CT 3D scanning analysis; format: functional, organism-based
[30] = system: Mus musculus; assay: Anti-osteoporosis activity in OVX-induced […] C57BL/6J mouse model assessed as improvement in BMD in femur at 9.36 mg/kg measured every three days for 7 weeks by Micro-CT 3D scanning analysis; format: functional, organism-based
[31] = system: Mus musculus; assay: Anti-osteoporosis activity LPS induced male C57BL/6J mouse model assessed as increase in trabecular bone volume fraction in femur at 9.36 mg/kg measured every 2 days for 12 day by Micro-CT 3D scanning method; format: functional, organism-based

SMILES	Activity [3]	Activity [5]	Activity [6]	Activity [7]	Activity [12]	Activity [13]	Activity [14]	Activity [16]	Activity [17]	Activity [18]	Activity [19]	further results
COc1ccc(-c2cc(=O)c3c(O)cc(O)cc3o2)cc1 [ACACETIN]	Active	Active	Active	Non-Toxic	Active	Active	Active	Active	Active	Active	Active	Activity [1]: Active; Activity [2]: Active; Activity [4]: Active; Activity [8]: Active; Activity [9]: Active; Activity [10]: Active; Activity [11]: Active; Drug uptake [15]: 489.59 ng/mL; Activity [20]: Active
COCCOCCOCCOCCOCC(=O)Oc1cc(O)c2c(=O)cc(-c3ccc(OC)cc3)oc2c1	Active	Active	Active	Non-Toxic	Active	Active	Active	Active	Active	Active	Active	Activity [21]: Active; Activity [22]: Active; Activity [23]: Active; Activity [24]: Active; Drug uptake [25]: 3528.82 ng/mL; Activity [26]: Active; Activity [27]: Active; Activity [28]: Active; Activity [29]: Active; Activity [30]: Active; Activity [31]: Active
